Patent publication US6737383B1, “Herbicidal oxadiazolidines” (priority 1999, dated 2004)

Key:
blackgrass = test: Test B pre/postemergence blackgrass; format: in vivo, Alopecurus myosuroides
How it was run: (§1)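 Herbicidal effect was estimated by eye on a ten-point control scale after plants spent twelve to sixteen days in a greenhouse following soil or foliar treatment. Foliar sprays targeted plants at one to four leaves; all doses were formulated in a non-phytotoxic solvent with surfactant.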

surinam grass = test: Test B pre/postemergence surinam grass; format: in vivo, Brachiaria decumbens; conditions: for Plant response rating, B. signalgrass: Postemergence; for B. signalgrass plant response rating: Preemergence
How it was run: as §1

cocklebur = test: Test B pre/postemergence cocklebur; format: in vivo, Xanthium strumarium
How it was run: as §1

corn = test: Test B pre/postemergence corn; format: in vivo, Zea mays
How it was run: as §1

crabgrass = test: Test B pre/postemergence crabgrass; format: in vivo, Digitaria sanguinalis
How it was run: as §1

giant foxtail = test: Test B pre/postemergence giant foxtail; format: in vivo, Setaria faberii
How it was run: as §1

morningglory = test: Test B pre/postemergence morningglory; format: in vivo, Ipomoea hederacea
How it was run: as §1

pigweed = test: Test B pre/postemergence pigweed; format: in vivo, Amaranthus retroflexus
How it was run: as §1

rape = test: Test B pre/postemergence rape; format: in vivo, Brassica napus
How it was run: as §1

soybean = test: Test B pre/postemergence soybean; format: in vivo, Glycine max
How it was run: as §1

sugar beet = test: Test B pre/postemergence sugar beet; format: in vivo, Beta vulgaris
How it was run: as §1

velvetleaf = test: Test B pre/postemergence velvetleaf; format: in vivo, Abutilon theophrasti
How it was run: as §1

wheat = test: Test B pre/postemergence wheat; format: in vivo, Triticum aestivum
How it was run: as §1

wild oat = test: Test B pre/postemergence wild oat; format: in vivo, Avena fatua
How it was run: as §1

purple nutsedge = test: Test B pre/postemergence purple nutsedge; format: in vivo, Cyperus rotundus
How it was run: as §1

rice = test: Test B flood test rice; format: in vivo, Oryza sativa
How it was run: (§2)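 Read-out is a visual response score from 0 (no effect) to 10 (complete control), assigned by comparison with untreated controls. Treatment was applied at the 2-leaf stage, and plants stayed in the greenhouse for twelve to sixteen days before scoring.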

smallflower flatsedge = test: Test B flood test smallflower flatsedge; format: in vivo, Cyperus difformis
How it was run: as §2

duck salad = test: Test B flood test duck salad; format: in vivo, Heteranthera limosa
How it was run: as §2

bamyardgrass = test: Test B flood test barnyardgrass; format: in vivo, Echinochloa crus-galli
How it was run: as §2

[1] = Postemergence, Rate 62 g/ha, scale 0 to 10, 0 is no effect, 10 is complete control
[2] = Postemergence, Rate 125 g/ha, scale of 0 to 10 where 0 is no effect and 10 is complete control
[3] = Postemergence, Rate 250 g/ha, scale of 0 to 10, 0 is no effect, 10 is complete control
[4] = Postemergence, Rate 500 g/ha, scale of 0 to 10 where 0 is no effect and 10 is complete control
[5] = Preemergence, Rate 62 g/ha, scale 0 to 10 (0 no effect, 10 complete control)
[6] = Preemergence, Rate 125 g/ha, scale of 0 to 10 where 0 is no effect and 10 is complete control
[7] = Preemergence, Rate 500 g/ha, scale of 0 to 10 where 0 is no effect and 10 is complete control
[8] = Rate 125 g/ha, scale of 0 to 10 where 0 is no effect and 10 is complete control
[9] = Rate 500 g/ha, scale of 0 to 10 where 0 is no effect and 10 is complete control
[10] = Rate 62 g/ha, flood test species, Pre-emergence, visual evaluation after twelve to sixteen days
[11] = Rate 125 g/ha, under heading Pre-emergence, flood test species, visual evaluation after twelve to sixteen days
[12] = Rate 250 g/ha, Pre-emergence (flood test species), scale 0 to 10, 0 is no effect, 10 is complete control
[13] = Rate 500 g/ha, Pre-emergence section of Table B, 0 to 10 scale (0 no effect, 10 complete control)

C=C(Cl)Cn1c(=O)on(C(=O)N(c2ccccc2)C(C)C)c1=O [Compound 608]
Plant response rating, Blackgrass (blackgrass; [1]): 4
Plant response rating, Blackgrass (blackgrass; [2]): 6
Blackgrass plant response rating (blackgrass; [3]): 8
Plant response rating, Blackgrass (blackgrass; [4]): 9
Blackgrass plant response rating (blackgrass; [5]): 2
Blackgrass plant response rating (blackgrass; [6]): 5
Blackgrass plant response rating (0 to 10 scale) (blackgrass; Preemergence, Rate 250 g/ha): 7
Blackgrass plant response rating (blackgrass; [7]): 9
Plant response rating, B. signalgrass (surinam grass; Rate 62 g/ha, scale 0 to 10, 0 is no effect, 10 is complete control): 3
Plant response rating, B. signalgrass (surinam grass; [8]): 10
Plant response rating, B. signalgrass (surinam grass; [9]): 10
B. signalgrass plant response rating (surinam grass; Rate 62 g/ha, scale 0 to 10 (0 no effect, 10 complete control)): 1
B. signalgrass plant response rating (surinam grass; [8]): 10
B. signalgrass plant response rating (surinam grass; [9]): 10
Plant response rating, Cocklebur (cocklebur; [1]): 0
Plant response rating, Cocklebur (cocklebur; [2]): 0
Cocklebur plant response rating (cocklebur; [3]): 0
Plant response rating, Cocklebur (cocklebur; [4]): 0
Cocklebur plant response rating (cocklebur; [5]): 0
Cocklebur plant response rating (cocklebur; [6]): 0
Cocklebur plant response rating (0 to 10 scale) (cocklebur; Preemergence, Rate 250 g/ha): 0
Plant response rating, Cocklebur (cocklebur; [7]): 0
Plant response rating, Corn (corn; [1]): 0
Plant response rating, Corn (corn; [2]): 0
Corn plant response rating (corn; [3]): 0
Plant response rating, Corn (corn; [4]): 0
Corn plant response rating (corn; [5]): 0
Corn plant response rating (corn; [6]): 0
Corn plant response rating (0 to 10 scale) (corn; Preemergence, Rate 250 g/ha): 0
Plant response rating, Corn (corn; [7]): 1
Plant response rating, Crabgrass (crabgrass; [1]): 3
Plant response rating, Crabgrass (crabgrass; [2]): 3
Crabgrass plant response rating (crabgrass; [3]): 7
Plant response rating, Crabgrass (crabgrass; [4]): 7
Crabgrass plant response rating (crabgrass; [5]): 7
Crabgrass plant response rating (crabgrass; [6]): 9
Plant response rating, Crabgrass (crabgrass; [7]): 10
Plant response rating, Giant foxtail (giant foxtail; [1]): 5
Plant response rating, Giant foxtail (giant foxtail; [2]): 7
Giant foxtail plant response rating (giant foxtail; [3]): 7
Plant response rating, Giant foxtail (giant foxtail; [4]): 9
Giant foxtail plant response rating (giant foxtail; [5]): 9
Giant foxtail plant response rating (giant foxtail; [6]): 10
Plant response rating, Giant foxtail (giant foxtail; [7]): 10
Plant response rating, Morningglory (morningglory; [1]): 0
Plant response rating, Morningglory (morningglory; [2]): 7
Morningglory plant response rating (morningglory; [3]): 8
Plant response rating, Morningglory (morningglory; [4]): 10
Morningglory plant response rating (morningglory; [5]): 0
Morningglory plant response rating (morningglory; [6]): 0
Plant response rating, Morningglory (morningglory; [7]): 4
Plant response rating, Redroot pigweed (pigweed; [1]): 3
Plant response rating, Redroot pigweed (pigweed; [2]): 5
Redroot pigweed plant response rating (pigweed; [3]): 7
Plant response rating, Redroot pigweed (pigweed; [4]): 8
Redroot pigweed plant response rating (pigweed; [5]): 5
Redroot pigweed plant response rating (pigweed; [6]): 5
Plant response rating, Redroot pigweed (pigweed; [7]): 7
Plant response rating, Rape (rape; [1]): 1
Plant response rating, Rape (rape; [2]): 5
Rape plant response rating (rape; [3]): 5
Plant response rating, Rape (rape; [4]): 7
Rape plant response rating (rape; [5]): 1
Rape plant response rating (rape; [6]): 5
Plant response rating, Rape (rape; [7]): 7
Plant response rating, Soybean (soybean; [1]): 3
Plant response rating, Soybean (soybean; [2]): 4
Soybean plant response rating (soybean; [3]): 4
Soybean plant response rating (soybean; [5]): 0
Soybean plant response rating (soybean; [6]): 0
Plant response rating, Soybean (soybean; [7]): 4
Plant response rating, Sugarbeets (sugar beet; [1]): 0
Plant response rating, Sugarbeets (sugar beet; [2]): 5
Sugarbeets plant response rating (sugar beet; [3]): 5
Plant response rating, Sugarbeets (sugar beet; [4]): 5
Sugarbeets plant response rating (sugar beet; [5]): 0
Sugarbeets plant response rating (sugar beet; [6]): 0
Plant response rating, Sugarbeets (sugar beet; [7]): 4
Plant response rating, Velvetleaf (velvetleaf; [1]): 0
Plant response rating, Velvetleaf (velvetleaf; [2]): 0
Velvetleaf plant response rating (velvetleaf; [3]): 4
Plant response rating, Velvetleaf (velvetleaf; [4]): 6
Velvetleaf plant response rating (velvetleaf; [5]): 0
Velvetleaf plant response rating (velvetleaf; [6]): 4
Plant response rating, Velvetleaf (velvetleaf; [7]): 7
Plant response rating, Wheat (wheat; [1]): 0
Wheat plant response rating (wheat; [3]): 0
Plant response rating, Wheat (wheat; [4]): 0
Wheat plant response rating (wheat; [5]): 0
Wheat plant response rating (wheat; [6]): 0
Plant response rating, Wheat (wheat; [7]): 0
Plant response rating, Wild oats (wild oat; [1]): 3
Plant response rating, Wild oats (wild oat; [2]): 4
Wild oats plant response rating (wild oat; [3]): 5
Plant response rating, Wild oats (wild oat; [4]): 6
Wild oats plant response rating (wild oat; [5]): 0
Wild oats plant response rating (wild oat; [6]): 3
Plant response rating, Wild oats (wild oat; [7]): 6
Plant response rating, Nutsedge (purple nutsedge; [1]): 0
Plant response rating, Nutsedge (purple nutsedge; [2]): 0
Nutsedge plant response rating (purple nutsedge; [3]): 0
Nutsedge plant response rating (purple nutsedge; [6]): 0
Plant response rating, Nutsedge (purple nutsedge; [7]): 0
Plant response rating, Rice (0 to 10 scale, 0 is no effect, 10 is complete control) (rice; [10]): 0
Rice plant response rating (0 to 10 scale, 0 is no effect, 10 is complete control) (rice; [11]): 0
Rice plant response rating (rice; [12]): 0
Rice plant response rating (rice; [13]): 0
Plant response rating, S. Flatsedge (0 to 10 scale, 0 is no effect, 10 is complete control) (smallflower flatsedge; [10]): 0
S. Flatsedge plant response rating (0 to 10 scale, 0 is no effect, 10 is complete control) (smallflower flatsedge; [11]): 0
S. Flatsedge plant response rating (smallflower flatsedge; [12]): 0
S. Flatsedge plant response rating (smallflower flatsedge; [13]): 0
Plant response rating, Ducksalad (0 to 10 scale, 0 is no effect, 10 is complete control) (duck salad; [10]): 0
Ducksalad plant response rating (0 to 10 scale, 0 is no effect, 10 is complete control) (duck salad; [11]): 0
Ducksalad plant response rating (duck salad; [12]): 0
Ducksalad plant response rating (duck salad; [13]): 0
Plant response rating, Barnyardgrass (0 to 10 scale, 0 is no effect, 10 is complete control) (bamyardgrass; [10]): 0
Barnyardgrass plant response rating (0 to 10 scale, 0 is no effect, 10 is complete control) (bamyardgrass; [11]): 0
Barnyardgrass plant response rating (bamyardgrass; [12]): 0
Barnyardgrass plant response rating (bamyardgrass; [13]): 0
